Reference: patent US6955818B1, “Pour-on formulations” (Eli Lilly and Company, priority 1999, dated 2005)
“Also recorded” adds a separate entry of the source.

Assays:
Merino sheep skin = assay: Pour-on carrier/vehicle sheep skin irritation studies (histological scoring); assay type: in vivo; conditions: for skin irritancy / histological dermatitis (in words): applied to skin of recently shorn Merino sheep, histology; for Mean skin irritation scores: 1 mL applied to skin of recently shorn Merino sheep, histological score 0-15 (0 no change, 15 very severe damage; normal 2-4, >4 abnormal, >7 very abnormal)
Protocol: Studies were conducted to investigate and characterise the changes occurring in Merino sheep skin following the application of a range of candidate pour-on formulation components in order to discern safe carriers. Chemicals, emollients, wool grease derivatives and a wide range of formulations were applied (in 1 mL volumes) to each of 18 sites on the back and flanks of 15 recently shorn Merino sheep.
In the first study, skin samples were collected at necropsy 3½weeks after application. In subsequent studies, skin samples were collected 2 weeks after application. Standard haematoxylin and eosin stained sections were prepared from each piece of treated skin. A histological scoring system was devised to allow comparison of treatments. Each skin was assessed for the degree of hyperkeratosis, acanthosis and inflammatory cell infiltrate of the superficial dermis and given a rating score from 0–15. A score of 0=no change through to a score of 15 for very severe damage. Normal skin scored 2–4, >4 was abnormal and >7 was very abnormal. Treatments yielding a score ? 4.5 were considered safe. […]

Bovicola ovis [1] = assay: Example 3: spinosad in a variety of carriers as pour-on, lice control on sheep housed indoors; assay type: in vivo; conditions: carrier containing spinosad, 0.4 mg/kg, 1 mL/5 kg
Protocol: The aim of this study was to select the most efficacious of a range of eight formulations that were selected on the basis of safety, physical properties, efficacy, cost and theories of dermal insecticide spread.
Each formulation was prepared to provide spinosad at a dose of 0.4 mg/kg and applied at a rate of 1 mL/5 kg of body weight.

[2] = Example 12: physical characteristics and freezing points of solvents and solvent combinations; assay type: physicochemical; conditions: vehicle alone
Protocol: The physical characteristics of various individual solvents and solvent combinations were determined.

[3] = Example 5: diffusion of 14C-zeta-cypermethrin on sheep skin in a variety of carriers; assay type: in vivo; conditions: 1 mL/5 kg on backline of sheep; for spread of zeta-cypermethrin from the backline (in words): carrier with 10 mg/mL 14C-spiked zeta-cypermethrin, wool at 2, 7.5, 15 cm meridians up to day 14
Protocol: This study compared the amount and rate of diffusion of ^14C-labelled zeta-cypermethrin from the dorsal midline of sheep, when applied in wool grease, in an aqueous formulation and in a range of test carriers.
Each formulation was applied to the backline of three sheep at 1 mL/5 kg body weight. Wool was collected from three 12×12-mm squares chosen at random, along meridian lines drawn 2, 7.5 and 15 cm down the side of each sheep from the backline. The wool samples were collected at 1, 2, 4, 8, 11 and 14 days after treatment, and each day's samples were pooled. The clipped areas were also swabbed. At day 14 after treatment, the wool at the site of application was collected and back and perirenal fat samples were collected. The quantity of zeta-cypermethrin in each sample was measured by liquid scintillation counting.

[4] = tested on: Bovicola ovis (highly synthetic pyrethroid (SP) resistant, Hartley strain of lice); assay: Example 2: wool grease formulations and IPM with zeta-cypermethrin and spinosad, lice control on sheep; assay type: in vivo; conditions: for efficacy at eight weeks: 2 mL/10 kg
Description: The purposes of this study were to evaluate wool grease as a formulation to deliver spinosad, to determine the dose required to kill 100% of lice in sheep and to evaluate the suitability of the formulation to deliver zeta-cypermethrin, compared with an isopropyl myristate (IPM) formulation.
Sheep were heavily infested with the highly synthetic pyrethroid (SP) resistant, Hartley strain of lice. Sheep were shorn, lice counted and sheep allocated to ten groups of six sheep, each divided into three groups of two per treatment. All sheep were treated at the rate of 2 mL of test formulation/10 kg of body weight. Treatments were, respectively: wool grease only; 2 mg/kg deltamethrin and 4 mg/kg alphacypermethrin in commercial formulations; spinosad in wool grease at 0.08 mg/kg, 0.4 mg/kg, 2 mg/kg and 10 mg/kg; zeta-cypermethrin in wool grease at 0.66 mg/kg and 2 mg/kg; and spinosad in IPM at 0.4 mg/kg. Lice numbers were counted weekly for eight weeks.

[5] = tested on: Bovicola ovis (Hartley, Claremont, susceptible and slightly resistant strains); assay: Example 6: zeta-cypermethrin in a variety of carriers, lice control on sheep; assay type: in vivo; conditions: for lice control, susceptible strain (in words): sheep infested with SP-susceptible strain
Protocol: These studies were devised to determine the efficacy of zeta-cypermethrin (at 2 mg/kg of body weight) in several nonaqueous formulations, and a commercial formulation of deltamethrin, on sheep infested with a severely synthetic pyrethroid (SP) resistant (Hartley) strain and a moderately SP resistant (Claremont) strain of Bovicola ovis. Some additional studies were undertaken with susceptible and slightly resistant lice to determine whether zeta-cypermethrin was able to kill lice under optimum conditions.

Bovicola ovis [6] = assay: Example 4: therapeutic efficacy and dose titration of spinosad pour-on, sheep housed outdoors; assay type: in vivo; conditions: 1 mL/5 kg
Protocol: This study was carried out to select the dose of spinosad required to eradicate sheep body lice when applied as a pour-on in OP/IPM/OSU (70:15:15) containing 5% oleic acid, and to compare the efficacy of spinosad at 0.4 mg/kg in a suspension concentrate (SC) formulation applied as a pour-on with that of the pour-on organic solvent formulation. The spinosad formulations were applied at 1 mL/5 kg and at 0, 0.2, 0.4, 0.8, 1.6 and 3.2 mg/kg to 6 groups of 6 recently shorn sheep that were housed outdoors for 6 weeks.

[7] = 2 mg/kg (deltamethrin in commercial formulation; zeta-cypermethrin in wool grease)

## CCCCCCCCCCC(CO)CCCCCCCC (centres unmarked) [2-octyl-dodecanol]
Merino sheep skin
  skin irritancy / histological dermatitis (in words): highly irritant

## CCCCOCCOCCO [DB, diethylene glycol n-butyl ether]
Merino sheep skin
  Mean skin irritation scores: 7
  skin irritancy / histological dermatitis (in words): highly irritant

## COC(C)COC(C)CO (centres unmarked) [DPM, dipropylene glycol methyl ether]
Merino sheep skin
  Mean skin irritation scores: 4
  skin irritancy / histological dermatitis (in words): mild to moderate dermatitis

## CC(=O)CC(C)(C)O [Diacetone alcohol]
Merino sheep skin
  Mean skin irritation scores: 2
  skin irritancy / histological dermatitis (in words): non-irritant

## CCCCCCCCCCCCCC(=O)OC(C)C [IPM, isopropyl myristate]
Bovicola ovis [1]
  efficacy by the end of the study: about 90%
Merino sheep skin
  Mean skin irritation scores: 8
  skin irritancy / histological dermatitis (in words): severe dermatitis
[2]
  freezing point: −2 to −6 °C
[3]
  spread of zeta-cypermethrin from the backline (in words): greatest spread; also recorded: best spread
[3]; carrier with 10 mg/mL zeta-cypermethrin
  skin reaction at the site of application: severe scabbing/crusting of the skin

## CCCCCCCCCCCCCCCC(=O)OCCCCCCCC [OP, octyl palmitate]
Merino sheep skin
  Mean skin irritation scores: 3.3
  skin irritancy / histological dermatitis (in words): non-irritant
[2]
  Physical Properties (in words): spreads, lubricant

## CCCCCCCCCCCCCCCCCC(=O)OCCCCCCCC [OS, octyl stearate]
[2]
  Physical Properties (in words): spreads, lubricant
[3]
  spread of zeta-cypermethrin from the backline (in words): modest spread; also recorded: better spread

## CC1(C)C(C=C(Cl)Cl)C1C(=O)OC(C#N)c1cccc(Oc2ccccc2)c1 (centres unmarked) [alphacypermethrin]
[4]; 4 mg/kg (alphacypermethrin in commercial formulation)
  efficacy at eight weeks: 9%

## CC1(C)[C@H](C(=O)O[C@H](C#N)c2cccc(Oc3ccccc3)c2)[C@@H]1C=C(Br)Br [deltamethrin]
[4]; [7]
  efficacy at eight weeks: 8%

## CCCCCCCC/C=C\CCCCCCCC(=O)OC [methyl oleate]
Merino sheep skin
  skin irritancy / histological dermatitis (in words): highly irritant

## CC1(C)C(C=C(Cl)Cl)C1C(=O)OC(C#N)c1cccc(Oc2ccccc2)c1 (centres unmarked) [zeta-cypermethrin]
[5]; 2 mg/kg zeta-cypermethrin in nonaqueous formulations, commercial deltamethrin, Hartley and Claremont strains
  lice control, lice with high and moderate resistance to SPs (in words): did not give adequate control
[5]; zeta-cypermethrin 2 mg/kg pour-on
  lice control, susceptible strain (in words): did control
[5]; zeta-cypermethrin 2 mg/kg pour-on, listed as Zeta-cypermethrin
  lice control, susceptible strain (in words): eradicated lice
[5]; zeta-cypermethrin 2 mg/kg pour-on, sheep infested with mildly resistant strain
  lice control, mildly resistant strain (in words): excellent control
[4]; 0.66 mg/kg (zeta-cypermethrin in wool grease)
  efficacy at eight weeks: 0%
[4]; [7]
  efficacy at eight weeks: 43%
[4]; weekly counts for eight weeks
  lice control compared with the other treatments (in words): no significant differences in efficacy at eight weeks; also recorded: better lice control than the commercial pour-ons for the first 5 weeks

## isocetyl stearate [ICS]
Merino sheep skin
  skin irritancy / histological dermatitis (in words): mild to moderate dermatitis

## propylene glycol dicaprylate dicaprate
Merino sheep skin
  skin irritancy / histological dermatitis (in words): highly irritant

## spinosad
Bovicola ovis [6]; spinosad 0.2 mg/kg in OP/IPM/OSU (70:15:15) with 5% oleic acid
  Efficacy (%) at Day 41: 37%
Bovicola ovis [6]; spinosad 0.4 mg/kg in OP/IPM/OSU (70:15:15) with 5% oleic acid
  Efficacy (%) at Day 41: 46%
Bovicola ovis [6]; spinosad 0.8 mg/kg in OP/IPM/OSU (70:15:15) with 5% oleic acid
  Efficacy (%) at Day 41: 78%
Bovicola ovis [6]; spinosad 1.6 mg/kg in OP/IPM/OSU (70:15:15) with 5% oleic acid
  Efficacy (%) at Day 41: 37%
Bovicola ovis [6]; spinosad 3.2 mg/kg in OP/IPM/OSU (70:15:15) with 5% oleic acid
  Efficacy (%) at Day 41: 93%
